{"source": "ChEMBL document CHEMBL5550135", "about": "“Targeting the cysteine biosynthesis pathway in microorganisms: Mechanism, structure, and drug discovery” (Eur J Med Chem, 2024)", "key": {"Escherichia coli": {"system": "Escherichia coli", "assay": "Antibacterial activity against Escherichia coli assessed as reduction in bacterial growth by broth microdilution method", "assay_type": "functional"}, "[1]": {"system": "Mycobacterium tuberculosis", "assay": "Antimycobacterial activity against Mycobacterium tuberculosis H37Rv assessed as reduction in bacterial growth incubated for 7 days by resazurin based assay", "assay_type": "functional", "conditions": "168 h, time 7 day"}, "[2]": {"assay": "Binding affinity to Salmonella Typhimurium ATCC 14028 O-acetylserine sulfhydrylase B assessed as dissociation constant", "set-up": "species or system Salmonella enterica subsp. enterica serovar Typhimurium"}, "[3]": {"assay": "Binding affinity to Salmonella Typhimurium ATCC 14028 O-acetylserine sulfhydrylase A assessed as dissociation constant", "set-up": "species or system Salmonella enterica subsp. enterica serovar Typhimurium"}, "[4]": {"assay": "Inhibition of Salmonella enterica Serine acetyltransferase by spectrophotometric analysis"}, "[5]": {"assay": "Inhibition of Methicillin-resistant Staphylococcus aureus ATCC 33591 Serine acetyltransferase"}, "Staphylococcus aureus": {"system": "Staphylococcus aureus", "assay": "Antibacterial activity against methicillin-resistant Staphylococcus aureus ATCC 33591 assessed as reduction in bacterial growth incubated for 18 hrs by broth microdilution method", "assay_type": "functional"}, "[6]": {"assay": "Inhibition of Entamoeba histolytica O-acetylserine sulfhydrylase"}, "[7]": {"target": "O-acetylserine sulfhydrylase (Mycobacterium tuberculosis, UniProt P9WP55)", "assay": "Inhibition of Mycobacterium tuberculosis ATCC 25618 Cysteine synthase A"}, "[8]": {"assay": "Inhibition of Klebsiella pneumoniae Serine acetyltransferase"}}}
{"smiles": "O=C(CSc1c[nH]nn1)Nc1ccccc1F", "values": [{"measurement": "MIC", "setting": "Escherichia coli", "result": 1.6, "unit": "µg/mL"}]}
{"smiles": "Cc1ccc(S(=O)(=O)n2nc(-c3ccccc3)c3c(N)ncnc32)cc1", "values": [{"measurement": "MIC", "setting": "Escherichia coli", "result": 0.57, "unit": "µg/mL"}]}
{"smiles": "O=C1N=C2C(C(=O)N=C3SC([N+](=O)[O-])=CN32)C(c2ccccc2C(F)(F)F)N1", "note": "(stereo unspecified)", "values": [{"measurement": "MIC", "setting": "[1]", "result": 7.6, "unit": "µM"}]}
{"smiles": "Cc1ccc(C[C@@]2(C(=O)O)C[C@H]2c2ccccc2)cc1", "values": [{"measurement": "Kd", "setting": "[2]", "result": 0.49, "unit": "µM"}, {"measurement": "Kd", "setting": "[3]", "result": 0.02, "unit": "µM"}]}
{"smiles": "Cc1ccc(Nc2nc(-c3cc(C(=O)O)no3)cs2)cc1", "values": [{"measurement": "IC50", "setting": "[4]", "result": 110, "unit": "µM"}]}
{"smiles": "CC1=C2[C@@H](OC1=O)C(=O)[C@H]1[C@]3(C)CCCC(C)(C)[C@H]3CC[C@@]1(O)[C@H]2O", "values": [{"measurement": "IC50", "setting": "[5]", "result": 71.8, "unit": "µM"}, {"measurement": "MIC", "setting": "Staphylococcus aureus", "result": 12.5, "unit": "µg/mL"}]}
{"smiles": "CC1(C)CCC[C@]2(C)[C@@H]1CC[C@]1(O)[C@H](O)C3=C(CO)C(=O)OC3=C[C@@H]21", "values": [{"measurement": "IC50", "setting": "[5]", "result": 71.8, "unit": "µM"}, {"measurement": "MIC", "setting": "Staphylococcus aureus", "result": 25, "unit": "µg/mL"}]}
{"smiles": "C[C@@H]1O[C@@H](O[C@@H]2C[C@H](c3ccc4c(c3O)C(=O)C3=C(C4=O)[C@@]4(O[C@H]5CC[C@H](O)[C@H](C)O5)C(=O)C[C@](C)(O)C[C@@]4(O)C=C3)O[C@H](C)[C@H]2O)CC[C@@H]1O[C@H]1C[C@@H](O)[C@H](O)[C@@H](C)O1", "values": [{"measurement": "IC50", "setting": "[6]", "result": 0.31, "unit": "µM"}, {"measurement": "IC50", "setting": "[7]", "result": 0.63, "unit": "µM"}]}
{"smiles": "Cc1ccc(C[C@@]2(C(=O)O)C[C@H]2c2cccc(-c3cc(O)cc(F)c3)c2)cc1", "values": [{"measurement": "Kd", "setting": "[2]", "result": 0.61, "unit": "µM"}, {"measurement": "Kd", "setting": "[3]", "result": 0.03, "unit": "µM"}]}
{"smiles": "Cc1cc(C)cc(Nc2nc(-c3cc(C(=O)O)no3)co2)c1", "values": [{"measurement": "IC50", "setting": "[4]", "result": 4.24, "unit": "µM"}]}
{"smiles": "O=c1c(O)c(-c2ccc(O)c(O)c2)oc2cc(O)cc(O)c12", "note": "[QUERCETIN]", "values": [{"measurement": "IC50", "setting": "[8]", "result": 3.7, "unit": "µM"}]}
